Data from patent publication US8076294B2, “Collagen-related peptides and uses thereof” (Advanced Technologies and Regenerative Medicine, LLC., priority 2007, dated 2011).
“Also recorded” adds a separate entry of the source.

Columns and labels:
[1] = target: T1, integrin GPIIb/IIIa (Homo sapiens, UniProt P05106+P08514); test: Inhibition by elarofiban of platelet aggregation induced by collagen or CRP trimer SEQ ID 25; assay type: cell-based
T1 construct: Washed platelets were incubated with various elarofiban doses; host or cells: washed human platelets from PRP of healthy volunteers

[2] = system: human platelets; test: Human platelet aggregation assay (washed platelets, optical density 650 nm); assay type: cell-based; settings: for EC50 ± SEM, platelet aggregation: Table 3
Description: Human platelet-rich plasma (PRP) concentrate from healthy volunteers was purchased from Biological Specialties, Inc. (Colmar, Pa.). […] The PRP was centrifuged at 730 g for 15 min. The resulting platelet pellet was washed twice in CGS buffer (13 mM sodium citrate, 30 mM glucose, 120 mM NaCl, pH 6.5) containing 1 U/mL apyrase (grade V, Sigma-Aldrich) and resuspended in Tyrode's buffer (140 mM NaCl, 2.7 mM KCl, 12 mM NaHCO3, 0.76 mM Na2HPO4, 5.5 mM dextrose, 5.0 mM Hepes, 0.2% BSA, pH 7.4). The “washed” platelets were diluted to 3×10^8 platelets/mL and kept >45 min at 37° C. before use.
For the assay, 105 μL of washed platelets, 2 mM CaCl2 and […] of fibrinogen were added to a 96-well microtiter plate. Platelet aggregation was initiated by the addition of serial concentrations of native collagen fibrils (equine type I; 92% identity with human collagen sequence; Chrono-log Corp., Havertown, Pa.) or test peptides. Buffer was added to one set of control wells. The assay plate was stirred constantly and intermittently placed in a microplate reader (Softmax, Molecular Devices, Menlo Park, Calif.) to read optical density (650 nm) at 0 and 5 min after the addition of the compound solutions. Aggregation was calculated as the decrease in optical density between the time-0 and 5-min measurements and expressed as percent of aggregation.
Peptides were dissolved in PBS (pH 7) or water (final pH 5) to a concentration of 2 mg/mL. Some samples were heated in a water bath (70° C.) for 10 min, filtered through a 0.45-μm filter and incubated for 24 h or 7 days at 4° C.

T1 sequence (P08514 32-887 limits assumed): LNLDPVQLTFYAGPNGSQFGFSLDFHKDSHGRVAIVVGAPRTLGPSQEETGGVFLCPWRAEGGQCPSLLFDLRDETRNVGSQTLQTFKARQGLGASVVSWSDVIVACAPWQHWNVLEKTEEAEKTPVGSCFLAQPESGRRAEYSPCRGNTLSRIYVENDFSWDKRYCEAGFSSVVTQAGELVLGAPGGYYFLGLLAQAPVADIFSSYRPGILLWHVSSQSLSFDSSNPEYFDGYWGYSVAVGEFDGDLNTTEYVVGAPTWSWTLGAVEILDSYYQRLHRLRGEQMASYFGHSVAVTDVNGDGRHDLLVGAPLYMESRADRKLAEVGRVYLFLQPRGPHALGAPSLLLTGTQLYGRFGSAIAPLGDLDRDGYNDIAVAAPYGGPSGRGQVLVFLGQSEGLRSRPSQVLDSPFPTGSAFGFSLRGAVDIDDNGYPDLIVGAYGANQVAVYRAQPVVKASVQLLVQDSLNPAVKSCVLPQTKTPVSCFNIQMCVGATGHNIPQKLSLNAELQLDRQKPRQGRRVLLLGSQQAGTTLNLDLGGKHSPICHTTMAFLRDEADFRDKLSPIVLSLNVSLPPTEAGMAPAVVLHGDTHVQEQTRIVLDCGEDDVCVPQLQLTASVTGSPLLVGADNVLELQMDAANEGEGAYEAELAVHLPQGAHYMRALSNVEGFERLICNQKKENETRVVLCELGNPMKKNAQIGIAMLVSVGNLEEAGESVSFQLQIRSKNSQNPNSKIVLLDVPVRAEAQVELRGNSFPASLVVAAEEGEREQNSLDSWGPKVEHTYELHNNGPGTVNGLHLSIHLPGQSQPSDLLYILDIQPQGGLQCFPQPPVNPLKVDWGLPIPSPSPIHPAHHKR
T1 sequence (P08514 891-1039 partner limits assumed): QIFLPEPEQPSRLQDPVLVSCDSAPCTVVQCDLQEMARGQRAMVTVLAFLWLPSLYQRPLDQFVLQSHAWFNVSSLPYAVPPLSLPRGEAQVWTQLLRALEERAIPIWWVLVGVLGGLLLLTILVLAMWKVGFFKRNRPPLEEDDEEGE
T1 sequence (P05106 27-788): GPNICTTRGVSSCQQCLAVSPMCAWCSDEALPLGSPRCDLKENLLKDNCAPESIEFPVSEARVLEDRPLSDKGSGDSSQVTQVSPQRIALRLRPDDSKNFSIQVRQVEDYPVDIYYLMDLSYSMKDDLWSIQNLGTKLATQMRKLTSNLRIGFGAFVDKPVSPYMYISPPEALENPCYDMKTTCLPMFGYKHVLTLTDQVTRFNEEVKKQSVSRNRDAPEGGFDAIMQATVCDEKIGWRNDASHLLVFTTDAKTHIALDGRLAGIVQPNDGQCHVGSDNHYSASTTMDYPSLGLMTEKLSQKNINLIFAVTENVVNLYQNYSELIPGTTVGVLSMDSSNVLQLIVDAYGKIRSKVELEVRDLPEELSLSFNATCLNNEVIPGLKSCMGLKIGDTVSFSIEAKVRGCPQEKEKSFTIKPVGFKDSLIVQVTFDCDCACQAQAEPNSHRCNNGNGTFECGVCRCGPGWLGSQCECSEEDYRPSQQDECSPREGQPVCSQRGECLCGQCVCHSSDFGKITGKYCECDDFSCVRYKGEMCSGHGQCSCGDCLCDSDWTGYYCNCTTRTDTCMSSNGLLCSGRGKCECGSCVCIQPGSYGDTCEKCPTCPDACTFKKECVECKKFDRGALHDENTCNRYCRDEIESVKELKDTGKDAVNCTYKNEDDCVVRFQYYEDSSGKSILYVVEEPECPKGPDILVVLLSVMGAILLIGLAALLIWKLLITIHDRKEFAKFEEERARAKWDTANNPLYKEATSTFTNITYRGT

With O=C(O)C[C@H](NC(=O)[C@@H]1CCCN(C(=O)CCC2CCNCC2)C1)c1cccnc1 [elarofiban] the “Inhibition of platelet aggregation induced by the CRP trimer having SEQ ID 25” value ([1]; washed platelets incubated with 10, 100 and 1000 nM for 5 min before SEQ ID 25) was “dose-dependent inhibition” and the “Inhibition of platelet aggregation induced by collagen” value ([1]; washed platelets incubated with 10, 100 and 1000 nM for 5 min before collagen) was “dose-dependent inhibition”.
In the case of (Pro-Hyp-Gly)10 [SEQ ID 34], the “Stimulation of platelet aggregation (in words)” value ([2]; Example 6, FIG. 1) is reported as “not effective” and the “EC50 ± SEM, platelet aggregation” value ([2]; peptide in PBS, H + F, pH 7, incubation 24 h) is reported as “failed to aggregate platelets; also recorded: Not Active”.
For Collagen, the “EC50 values (±SEM), platelet aggregation” value ([2]; Example 6, FIG. 1, Table 4) was 0.56 ± 0.09 µg/mL and the “EC50 ± SEM, platelet aggregation” value ([2]; native collagen fibrils (equine type I), no preparation conditions given) was 0.25 µg/mL.
